The record followed here is patent US20230271965A1, “BICYCLIC HETEROARENES AND METHODS OF THEIR USE” (Kineta, Inc., priority 2020, published 2023).

Where two headings read alike, the source gives them in different places.

Test [1] relates to PIKFYVE TDP-43 yeast strain. Briefly: Propidium iodide viability assay, PIKFYVE TDP-43 yeast strain. Conditions: Saccharomyces cerevisiae; reduction in PI-positive cells, 24 hours, values plotted in FIG. 7. The test is classed as cell-based. An excerpt: Generation of TDP-43 yeast model expressing human PIKfyve. Human PIKFYVE (“entry clone”) was cloned into pAG416GPDccdB (“destination vector”) according to standard Gateway cloning protocols (Invitrogen, Life Technologies). The resulting pAG416GPD-PIKFYVE plasmids were amplified in E. coli and plasmid identity confirmed by restriction digest and Sanger sequencing. Lithium acetate/polyethylene glycol-based transformation was used to introduce the above PIKFYVE plasmid into a BY4741 yeast strain auxotrophic for the ura3 gene and deleted for two transcription factors that regulate the xenobiotic efflux pumps, a major efflux pump, and FAB1, the yeast ortholog of PIKFYVE (MATa, snq2::KILeu2; pdr3::KIura3; pdr1::NATMX; fab1::G418^R, his3; leu2; ura3; met15; LYS2+) (FIG. 2).
Transformed yeast were plated on solid agar plates with complete synthetic media lacking uracil (CSM-ura) and containing 2% glucose. Individual colonies harboring the control or PIKFYVE TDP-43 plasmids were recovered. A plasmid containing wild-type TDP-43 under the transcriptional control of the GAL1 promoter and containing the hygromycin-resistance gene as a selectable marker was transformed into the fab1::G418^R pAG416GPD-PIKFYVE yeast strain (FIG. 1). Transformed yeast were plated on CSM-ura containing 2% glucose and […] after overnight recovery in media lacking antibiotic. Multiple independent isolates were further evaluated for cytotoxicity and TDP-43 expression levels.
Viability Assay. A control yeast strain with the wild-type yeast FAB1 gene and TDP-43 (“FAB1 TDP-43”, carries empty pAG416 plasmid), and the “PIKFYVE TDP-43” yeast strain, were assessed for toxicity using a propidium iodide viability assay. Both yeast strains were transferred from solid CSM-ura/2% glucose agar plates into 3 mL of liquid CSM-ura/2% glucose media for 6-8 hours at 30° C. with aeration. Yeast cultures were then diluted to an optical density at 600 nm wavelength (OD600) of 0.005 in 3 mL of CSM-ura/2% raffinose and grown overnight at 30° C. with aeration to an OD600 of 0.3-0.8. Log-phase overnight cultures were diluted to OD600 of 0.005 in CSM-ura containing either 2% raffinose or galactose and 150 μL dispensed into each well of a flat bottom 96-well plates. Compounds formulated in 100% dimethyl sulfoxide (DMSO) were serially diluted in DMSO and 1.5 μL diluted compound transferred to the 96-well plates using a multichannel pipet. Wells containing DMSO alone were also evaluated as controls for compound effects. Tested concentrations ranged from 15 μM to […]. Cultures were immediately mixed to ensure compound distribution and covered plates incubated at 30° C. for 24 hours in a stationary, humified incubator.
Upon the completion of incubation, cultures were assayed for viability using propidium iodide (PI) to stain for dead/dying cells. A working solution of PI was made where, for each plate, 1 μL of 10 mM PI was added to 10 mL of CSM-ura (raffinose or galactose). The final PI solution (50 μL/well) was dispensed into each well of a new round bottom 96-well plate. The overnight 96-well assay plate was then mixed with a multichannel pipet and 50 μL transferred to the PI-containing plate. This plate was then incubated for 30 minutes at 30° C. in the dark. A benchtop flow cytometer (Miltenyi MACSquant) was then used to assess red fluorescence ([…]), forward scatter, and side scatter (with following settings: gentle mix, high flow rate, fast measurement, 10,000 events). Intensity histograms were then gated for “PI-positive” or “PI-negative” using the raffinose and galactose cultures treated with DMSO as controls. The DMSO controls for raffinose or galactose-containing cultures were used to determine the window of increased cell death and this difference set to 100. All compounds were similarly gated and then compared to this maximal window to establish the percent reduction in PI-positive cells.

The target in test [2] is T1, full-length human PIKFYVE (GST-PIKFYVE) (Homo sapiens, UniProt Q9Y2I7, L932S/Q1183K/Q995L/S1033A/S696N/T998S).
T1 construct: A full-length human PIKFYVE [1-2098 (end) amino acids; purchased Carna Biosciences; host or cells: baculovirus expression system
The experiment in a line: PIKfyve biochemical assay (ADP-Glo Kinase assay, Carna Biosciences). Here is the method:
PIKfyve Biochemical Assay. The biochemical PIKFyve inhibition assays were run by Carna Biosciences according to proprietary methodology based on the Promega ADP-Glo™ Kinase assay. […] GST-PIKFYVE was purified by using glutathione sepharose chromatography and used in an ADP-Glo™ Kinase assay (Promega). Reactions were set up by adding the test compound solution, substrate solution, ATP solution and kinase solution, each at 4×final concentrations. Reactions were prepared with assay buffer (50 mM MOPS, 1 mM DTT, pH7.2), mixed, and incubated in black 384 well polystyrene plates for 1 hour at room temperature. ADP-Glo™ reagent was then added for 40 minutes, followed by kinase detection reagent for an additional 40 minutes. The kinase activity was evaluated by detecting relative light units on a luminescence plate reader. Samples were run in duplicate from 10 μM to 3 nM. […] IC50 values were calculated from concentration vs % inhibition curves by fitting to a four-parameter logistic curve.
The biochemical PIKFyve inhibition assays were run by Carna Biosciences according to proprietary methodology based on the Promega ADP-Glo™ Kinase assay. […] GST-PIKFYVE was purified by using glutathione sepharose chromatography and used in an ADP-Glo™ Kinase assay (Promega).
Reactions were set up by adding the test compound solution, substrate solution, ATP solution and kinase solution, each at 4×final concentrations. Reactions were prepared with assay buffer (50 mM MOPS, 1 mM DTT, pH7.2), mixed, and incubated in black 384 well polystyrene plates for 1 hour at room temperature. ADP-Glo™ reagent was then added for 40 minutes, followed by kinase detection reagent for an additional 40 minutes. The kinase activity was evaluated by detecting relative light units on a luminescence plate reader. Samples were run in duplicate from 10 uM to 3 nM. […] IC50 values were calculated from concentration vs % inhibition curves by fitting to a four-parameter logistic curve.
For orientation: ADP-Glo turns the ADP formed in a reaction into a luminescent signal.

Where [3] appears, read: values plotted in FIG. 7, read-out: PIKFYVE Biochemistry (IC50).
Setting [4] is: ADP-Glo, full-length human PIKFYVE, read-out: hPIKfyve IC50.
Setting [5] is: ADP-Glo with full-length PIKfyve, read-out: PIKfyve IC50.

T1 sequence (Q9Y2I7 whole entry S696N/L932S/Q995L/T998S/S1033A/Q1183K): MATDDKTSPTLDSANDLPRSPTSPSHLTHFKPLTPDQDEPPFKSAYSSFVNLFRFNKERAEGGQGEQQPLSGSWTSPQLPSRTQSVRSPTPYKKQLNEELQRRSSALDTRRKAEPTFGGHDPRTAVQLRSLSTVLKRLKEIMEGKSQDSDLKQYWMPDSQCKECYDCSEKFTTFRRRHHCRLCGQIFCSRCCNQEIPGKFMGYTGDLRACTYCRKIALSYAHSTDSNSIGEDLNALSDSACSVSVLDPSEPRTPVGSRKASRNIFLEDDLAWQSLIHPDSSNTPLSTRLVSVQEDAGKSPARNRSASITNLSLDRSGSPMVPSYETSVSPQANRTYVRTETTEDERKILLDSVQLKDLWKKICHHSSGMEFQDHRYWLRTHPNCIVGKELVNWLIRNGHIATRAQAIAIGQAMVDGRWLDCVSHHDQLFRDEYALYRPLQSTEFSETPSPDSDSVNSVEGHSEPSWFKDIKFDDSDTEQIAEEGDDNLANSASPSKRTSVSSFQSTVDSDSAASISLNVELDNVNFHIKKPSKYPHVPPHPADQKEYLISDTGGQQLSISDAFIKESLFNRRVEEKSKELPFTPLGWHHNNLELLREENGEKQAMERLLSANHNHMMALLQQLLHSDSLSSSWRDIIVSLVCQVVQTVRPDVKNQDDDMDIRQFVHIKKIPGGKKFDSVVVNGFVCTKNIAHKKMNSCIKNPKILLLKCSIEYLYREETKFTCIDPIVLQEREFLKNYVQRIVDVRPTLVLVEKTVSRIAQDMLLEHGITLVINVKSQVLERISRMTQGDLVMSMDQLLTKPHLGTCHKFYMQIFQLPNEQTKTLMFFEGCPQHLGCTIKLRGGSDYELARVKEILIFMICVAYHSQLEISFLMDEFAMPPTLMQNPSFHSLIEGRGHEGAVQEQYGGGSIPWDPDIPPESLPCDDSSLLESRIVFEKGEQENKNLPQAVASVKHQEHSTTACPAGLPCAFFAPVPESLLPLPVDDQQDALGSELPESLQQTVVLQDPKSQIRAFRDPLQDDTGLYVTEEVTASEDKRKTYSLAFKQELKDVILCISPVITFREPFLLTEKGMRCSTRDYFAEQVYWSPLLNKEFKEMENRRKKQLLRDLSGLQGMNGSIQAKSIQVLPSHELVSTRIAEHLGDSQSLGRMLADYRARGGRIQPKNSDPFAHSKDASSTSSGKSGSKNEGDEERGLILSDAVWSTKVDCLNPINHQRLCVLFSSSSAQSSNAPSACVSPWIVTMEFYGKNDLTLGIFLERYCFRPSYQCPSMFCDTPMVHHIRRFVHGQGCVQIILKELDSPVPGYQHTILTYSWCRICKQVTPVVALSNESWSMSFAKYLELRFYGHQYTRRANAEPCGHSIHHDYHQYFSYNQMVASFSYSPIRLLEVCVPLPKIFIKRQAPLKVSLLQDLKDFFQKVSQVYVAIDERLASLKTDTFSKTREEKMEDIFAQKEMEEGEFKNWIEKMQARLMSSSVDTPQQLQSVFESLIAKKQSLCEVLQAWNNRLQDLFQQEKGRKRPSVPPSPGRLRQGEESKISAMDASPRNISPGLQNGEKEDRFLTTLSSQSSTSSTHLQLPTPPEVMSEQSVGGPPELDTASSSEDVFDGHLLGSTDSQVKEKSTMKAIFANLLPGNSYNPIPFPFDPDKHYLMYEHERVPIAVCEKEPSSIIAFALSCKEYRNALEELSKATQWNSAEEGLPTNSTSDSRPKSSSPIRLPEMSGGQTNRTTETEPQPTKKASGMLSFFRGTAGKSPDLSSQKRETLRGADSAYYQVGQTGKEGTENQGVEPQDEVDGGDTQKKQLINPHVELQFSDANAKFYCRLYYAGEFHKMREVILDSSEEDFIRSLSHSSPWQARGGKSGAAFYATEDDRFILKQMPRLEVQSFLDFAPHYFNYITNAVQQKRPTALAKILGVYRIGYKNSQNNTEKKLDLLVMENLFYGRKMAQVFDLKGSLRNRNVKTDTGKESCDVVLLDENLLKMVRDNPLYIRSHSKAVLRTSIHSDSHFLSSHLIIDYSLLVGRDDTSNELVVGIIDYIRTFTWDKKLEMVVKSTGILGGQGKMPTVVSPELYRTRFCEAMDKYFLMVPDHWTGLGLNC

In general, IC50 refers to the midpoint of a concentration-inhibition curve. Consider `Cn1c(-c2ccncc2)nc2c(N3CCOCC3)ncnc21` [drawing 265], for which the IC50 in test [1] is greater than 15000 nM; in test [2] (setting [3]), 640 nM.
The like results for `c1ccc(-c2ccnc(-c3cc(N4CCOCC4)nc(OCc4ccncc4)n3)n2)cc1` were, in that order, 1450 nM and 32 nM.
`c1cc(-c2nc3nc(N4CCOCC4)cc(N4CCOCC4)n3n2)ccn1`: the IC50 was greater than 15000 nM in test [1] and 9200 nM in test [2] (setting [3]).
The like results for `Oc1cc(-c2ccccc2)nn1-c1cc(N2CCOCC2)n2nc(-c3ccncc3)nc2n1` were, in that order, 693 nM and 18 nM.
In the case of `c1ccc(Cc2nc(N3CCOCC3)nc3c2CCN3c2cccnc2)nc1` [Compound 38], the IC50 in test [2] (setting [4]) is 100 to 1000 nM.
Consider `Cc1cccc(/C=N/Nc2nc(N3CCOCC3)c3nc(-c4ccncc4)n(C)c3n2)c1` [drawing 252], for which, in test [2] (setting [5]), the IC50 stood at 4.9 nM.
With `c1ccc(N2CCc3c(OCc4cccnc4)nc(N4CCOCC4)nc32)cc1` [drawing 275], the IC50 in test [1] came out at 2680 nM; in test [2] (setting [3]), 42 nM.
With `O=c1ccn(Cc2nc(N3CCOCC3)cc(-n3nccc3-c3ccccc3)n2)cc1`, the IC50 in test [1] was greater than 15000 nM.
`COc1nc(N2CCOCC2)nc2c1CCN2c1ccccc1` [drawing 274]: the half-maximal inhibitory concentration (IC50) was found to be 4270 nM in test [1] and 85 nM in test [2] (setting [3]).
`c1cncc(-c2nc(N3CCOCC3)nc3c2CCN3c2ccc3c(c2)OCCO3)c1` [Compound 64, 4-(7-(2,3-dihydrobenzo[b][1,4]dioxin-6-yl)-4-(pyridin-3-yl)-6,7-dihydro-5H-pyrrolo[2,3-d]pyrimidin-2-yl)morpholine]: in test [2] (setting [4]), the half-maximal inhibitory concentration (IC50) was 10 to 100 nM.
On to `c1ccc(-c2cccc(-c3cc(N4CCOCC4)n4nc(-c5ccncc5)cc4n3)n2)cc1`, for which the IC50 in test [1] worked out at 230 nM; in test [2] (setting [3]) it was 14 nM.
Take `O=c1c(CCOc2cccnc2)cc2ncncc2n1-c1ccccc1`: the concentration for half-maximal inhibition (IC50) in test [1] is greater than 15000 nM.
Still for that read-out and setting: then `Fc1cccc(-c2ccnn2-c2nc(N3CCOCC3)c3ncccc3n2)c1`, with 5750 nM.
Regarding `Cn1c(-c2ccncc2)nc2c(N3CCOCC3)ncnc21` [drawing 253], in test [2] (setting [5]), the IC50 is 640 nM.
As for `c1cncc(N2CCc3c(COC4CCNC4)nc(N4CCOCC4)nc32)c1` (stereo not drawn) [Compound 13, 4-(7-(pyridin-3-yl)-4-((pyrrolidin-3-yloxy)methyl)-5,6-dihydro-5H-pyrrolo[2,3-d]pyrimidin-2-yl)morpholine], the IC50 in test [2] (setting [4]) fell in the range of 100 to 1000 nM.
Turning to `Oc1cc(C2CCOCC2)nn1-c1cc(N2CCOCC2)n2nc(-c3ccncc3)cc2n1`, the IC50 in test [1] stood at 9100 nM; in test [2] (setting [3]) it was 253 nM.
As to `CC(C)(C)OC(=O)N1CCC(OCc2nc(N3CCOCC3)nc3c2CCN3c2cccnc2)C1` (stereo not drawn) [Compound 15, tert-butyl 3-((2-morpholino-7-(pyridin-3-yl)-6,7-dihydro-5H-pyrrolo[2,3-d]pyrimidin-4-yl)methoxy)pyrrolidine-1-carboxylate], the IC50 in test [2] (setting [4]) was 1000 to 10000 nM.
Consider `Cc1cccc(/C=N/Nc2cc(N3CCOCC3)nc(OCCc3ccc(CN)cc3)n2)c1`, for which the IC50 in test [1] is 1120 nM; in test [2] (setting [3]), 7 nM.
For `c1cc(-c2cc3nc(C4CNC4)cc(N4CCOCC4)n3n2)ccn1`, the half-maximal inhibitory concentration (IC50) in test [1] was greater than 15000 nM; in test [2] (setting [3]), 8020 nM.
The like results for `O=c1ccc(-c2ccccc2)nn1-c1cc(N2CCOCC2)n2nc(-c3ccncc3)cc2n1` were, in that order, greater than 15000 nM and 295 nM.
For the molecule `c1ccc(N2CCc3c(NC4COC4)nc(N4CCOCC4)nc32)cc1` [Compound 48, 2-morpholino-N-(oxetan-3-yl)-7-phenyl-6,7-dihydro-5H-pyrrolo[2,3-d]pyrimidin-4-amine], in test [2] (setting [4]), the IC50 was 1000 to 10000 nM.
As to `Cc1cccc(/C=N/Nc2cc(N3CC4CC3CO4)n3nc(-c4ccncc4)cc3n2)c1` (stereo not drawn), in test [2] (setting [5]), the IC50 came out at 12 nM.
Turning to `c1ccc(Cc2ncccc2-c2cc(N3CCOCC3)n3nc(-c4ccncc4)cc3n2)cc1`, the results for the IC50 in test [1] and in test [2] (setting [3]) were greater than 15000 nM and 1090 nM, respectively.
Regarding `CN1CCCC(COc2nc(N3CCOCC3)nc3c2CCN3c2ccccc2)C1` (stereo not drawn) [Compound 7], the IC50 in test [2] (setting [4]) lay within 1000 to 10000 nM.
Take `c1ccc(-c2ccnn2-c2cc(N3CCOCC3)n3nc(-c4ccncc4)nc3n2)cc1`: the half-maximal inhibitory concentration (IC50) in test [1] is greater than 15000 nM; in test [2] (setting [3]), 767 nM.
The like results for `Cc1cccc(/C=N/Nc2nc(N3CCOCC3)c3ncccc3n2)c1` were, in that order, 8210 nM and 18 nM.
Take `c1ccc(N2CCc3c(OCC4CCCO4)nc(N4CCOCC4)nc32)cc1` (stereo not drawn) [Compound 8]: the IC50 in test [2] (setting [4]) lay within 10 to 100 nM.
Turning to `c1ccc(C2CN(c3cc(N4CCOCC4)n4nc(-c5ccncc5)cc4n3)CCN2)cc1` (stereo not drawn), the IC50 in test [1] is greater than 15000 nM; in test [2] (setting [3]) it was 2660 nM.
For `CN(C)c1cc(N2CCOCC2)n2nc(-c3ccncc3)cc2n1`, in test [2] (setting [5]), the IC50 was found to be 2010 nM.
For `c1ccc(N2CCc3c(OCc4ccncc4)nc(N4CCOCC4)nc32)cc1` [Compound 4], in test [2] (setting [4]), the IC50 fell in the range of 10 to 100 nM.
The same measure, in the same setting: to `c1ccc(N2CCc3c(Cc4ccccn4)nc(N4CCOCC4)nc32)cc1` [Compound 37, 4-(7-phenyl-4-(pyridin-2-ylmethyl)-6,7-dihydro-5H-pyrrolo[2,3-d]pyrimidin-2-yl)morpholine] belongs 10 to 100 nM.
`c1ccc(-c2nc(-c3cc(N4CCOCC4)nc(OCc4ccncc4)n3)no2)cc1` displayed an IC50 in test [1] greater than 15000 nM.
Regarding `c1cc(COc2nc(N3CCOCC3)cc(-n3cc4c(n3)COCC4)n2)ccn1`, the concentration for half-maximal inhibition (IC50) in test [1] was greater than 15000 nM; in test [2] (setting [3]), 1340 nM.
On to `Cc1cccc(/C=N/Nc2nc(N3CCOCC3)c3nc(-c4ccncc4)n(C)c3n2)c1` [drawing 266], for which the IC50 in test [1] came out at 4720 nM; in test [2] (setting [3]) it was 5 nM.
